These results are taken from US9877923B2, “Process for preparing therapeutic nanoparticles” (Pfizer Inc., priority 2012, dated 2018).

A short description of series [1]: Dasatinib solubility in selected solvents with or without acid doping (by HPLC). The following applies: organic solvent or mixture.
Series [2] in a line: Drug recovery during in vitro release experiments. It counts as physicochemical. The following applies: after 4 hr incubation at 37° C. An excerpt: Release data of 24 hr and 48 hr, in Table 4, are underlined because the drug recovered at these two time points show significant degradation (data are shown in the bottom of the table in the Drug Recovery section).

Values after ≈ are worked out from the molar mass of the structure shown.

Broadly, the solubility is the concentration that dissolves in the medium under given conditions. Take `Cc1nc(Nc2ncc(C(=O)Nc3c(C)cccc3Cl)s2)cc(N2CCN(CCO)CC2)n1` [Dasatinib, dasatinib]: the solubility in series [1] (1% TFA in benzyl alcohol) worked out at 56.5 mg/mL (≈ 116 mM); in series [1] (2% TFA in benzyl alcohol), 103 mg/mL (≈ 211 mM); in series [1] (3% TFA in 7.5% water in benzyl alcohol), 157 mg/mL (≈ 322 mM); in series [1] (3% TFA in benzyl alcohol) it was 141 mg/mL (≈ 289 mM); in series [1] (7.5% water in benzyl alcohol) it was 32.8 mg/mL (≈ 67.1 mM). Also, in series [2], the “stability of dasatinib during incubation” value was “degradation of dasatinib is observed”.
